Format in all cases: in vivo
The subject of test [1] is fall armyworm larvae (Spodoptera frugiperda). Briefly: Spodoptera frugiperda spray test. The settings on record: in Zea mays, 168 h. How it is done:
Spodoptera frukiperda—Spray Test
(§1) Solvent: 78.0 parts by weight acetone • 1.5 parts by weight dimethylformamide
(§2) Emulsifier: alkylarylpolyglycol ether
(§3) To produce a suitable preparation of active compound, 1 part by weight of active compound is mixed with the stated amount of solvents and is diluted with water, containing an emulsifier concentration of 1000 ppm, to the desired concentration. Further test concentrations are prepared by dilution with emulsifier containing water.
Maize (Zea mays) leaf sections are sprayed with a preparation of the active ingredient of the desired concentration. Once dry, the leaf sections are infested with fall armyworm larvae (Spodoptera frugiperda).
After 7 days mortality in % is determined. 100% means all caterpillars have been killed and 0% means none of the caterpillars have been killed.

Test [2] deals with adult brown dog ticks (Rhipicephalus sanguineus). Put plainly: Rhipicephalus sanguineus in-vitro contact test with adult brown dog ticks. The settings on record: 5 μg/cm^2 (=500 g/ha), after 48 hours, read-out: efficacy (ticks dead or moribund). How it is done:
Rhipicephalus sanguineus—In-Vitro Contact Tests with Adult Brown Dog Ticks
(§4) 9 mg compound is solved in 1 mL acetone and diluted with acetone to the desired concentration. 250 μL of the test solution is filled in 25 mL glass test tubes and homogeneously distributed on the inner walls by rotation and tilting on a shaking device (2 h at 30 rpm). With a compound concentration of 900 ppm, an inner surface of 44.7 cm^2 and a homogeneous distribution, a dose of 5 μg/cm^2 is achieved.
After the solvent has evaporated, each test tube is filled with 5-10 adult brown dog ticks (Rhipicephalus sanguineus), closed with a perforated lid and incubated in a lying position at room temperature and relative humidity. After 48 hours efficacy is determined. The ticks are patted on the ground of the tubes and are incubated on a heating plate at 45-50° C. for at most 5 minutes. Immotile or uncoordinated moving ticks, which are not able to escape the heat by climbing upwards, are marked as dead or moribund.
An efficacy of 100% means all ticks are dead or moribund; 0% means no ticks are dead or moribund.

Test [3] concerns Rhipicephalus microplus larvae (strain Parkhurst, resistant against synthetic pyrethroids). Briefly: Rhipicephalus (Boophilus) microplus in-vitro contact test, larval cattle tick. Particulars: 5 μg/cm^2 (=500 g/ha), after 48 hours, read-out: efficacy (larvae dead or moribund). As to the method: Rhipicephalus (Boophilus) Microplus—In-Vitro Contact Tests Larval Cattle Tick (Strain Parkhurst, Resistant Against Synthetic Pyrethroids)
as §4
After the solvent has evaporated, each test tube is filled with 20-50 cattle tick larvae (Rhipicephalus microplus), closed with a perforated lid and incubated in a horizontal position at 85% relative humidity and 27° C. in an incubator. After 48 hours efficacy is determined. The larvae are patted on the ground of the tubes and negative geotactic behaviour is recorded.
An efficacy of 100% means all larvae are dead or moribund; 0% means no larvae are dead or moribund.

The test system of test [4] is larvae of the banded cucumber beetle (Diabrotica balteata). Put plainly: Diabrotica balteata spray test. The settings on record: 168 h, 100 g/ha (=32 μg/well), after 7 days, wheat seeds, read-out: efficacy (seedlings grown like untreated, uninfected control). As to the method: Diabrotica balteata—spray test
Solvent: 78.0 parts by weight of acetone
1.5 parts by weight of dimethylformamide
as §2
To produce a suitable preparation of active compound, 1 part by weight of active compound is mixed with the stated amount of solvent, and the concentrate is diluted with water, containing an emulsifier concentration of 1000 ppm, to the desired concentration. Further test concentrations are prepared by dilution with emulsifier containing water.
Soaked wheat seeds (Triticum aestivum) are placed in a multiple well plate filled with agar and some water and are incubated for 1 day to germinate (5 seeds per well). The germinated wheat seeds are sprayed with a test solution containing the desired concentration of the active ingredient. Afterwards each unit is infected with 10-20 larvae of the banded cucumber beetle (Diabrotica balteata).
After 7 days efficacy in % is determined. 100% means all the seedlings have grown up like in the untreated, uninfected control; 0% means none of the seedlings have grown.

Test [5] deals with green peach aphid (Myzus persicae). Put plainly: Myzus persicae oral test. The settings on record: 120 h. How it is done:
Solvent: 100 parts by weight acetone
To produce a suitable preparation of active compound, 1 part by weight of active compound is mixed with the stated amount of solvent, and the concentrate is diluted with water to the desired concentration. 50 μL compound solution is filled in microtiter plates and 150 μL IPL41 insect medium (33%+15% sugar) is added to obtain a total volume of 200 μL per well. Afterwards the plates are sealed with parafilm through which a mixed population of the green peach aphid (Myzus persicae) can suck on the compound preparation.
(§5) After 5 days mortality in % is determined. 100% means all aphids have been killed and 0% means none of the aphids have been killed.

Test [6] relates to adult engorged female ticks (Rhipicephalus microplus). Put plainly: Rhipicephalus (Boophilus) microplus injection test. Particulars: 168 h, after 7 days, read-out: efficacy (infertile eggs); for pest or weed control at 0.004 mg: 4 μg/animal; for pest or weed control at 0.02 mg: 20 μg/animal. How it is done:
Rhipicephalus (Boophilus) microplus—Injection Test
(§6) Solvent: dimethyl sulfoxide
To produce a suitable preparation of active compound, 10 mg of active compound are dissolved in 0.5 mL solvent, and the concentrate is diluted with solvent to the desired concentration.
Five adult engorged female ticks (Rhipicephalus microplus) are injected with 1 μL compound solution into the abdomen. The ticks are transferred into replica plates and incubated in a climate chamber.
After 7 days egg deposition of fertile eggs is monitored. Eggs where fertility is not visible are stored in a climate chamber till hatching after about 42 days. An efficacy of 100% means all eggs are infertile; 0% means all eggs are fertile.

Test [7] relates to Aedes aegypti strain MONHEIM. Put plainly: Aedes aegypti test (AEDSAE surface treatment & contact assay). Particulars: 24 hours after contact, read-out: efficacy (mortality). As to the method: Aedes Aegypti Test (AEDSAE Surface Treatment & Contact Assay)
(§7) Solvent: Aceton+2000 ppm rapeseed oil methyl ester (RME)
In order to produce a sufficient, active ingredient containing solution it is necessary to solve the test compound in the solvent-mix (acetone at 2 mg/ml/RME 2000 ppm). This solution is pipetted onto a glazed tile and after evaporation of the acetone, adult mosquitoes of the species Aedes aegypti strain MONHEIM are placed onto the dried surface. The exposure time is 30 minutes. Mortality in percent (%) is determined 24 hours after contact of the insects to the treated surface. 100% mortality means that all tested insects are dead, whereas 0% means that no insect died.

Test [8] concerns adult unfed cat fleas (Ctenocephalides felis). Briefly: Ctenocephalides felis oral test. The settings on record: 48 h. How it is done:
Ctenocephalides felis—Oral Test
as §6
To produce a suitable preparation of active compound, 10 mg of active compound are dissolved in 0.5 ml solvent, and the concentrate is diluted with cattle blood to the desired concentration.
Approximately 20 adult unfed cat fleas (Ctenocephalides felis) are placed in flea chambers. The blood chamber, sealed with parafilm on the bottom, are filled with cattle blood supplied with compound solution and placed on the gauze covered top of the flea chamber, so that the fleas are able to suck the blood. The blood chamber is heated to 37° C. whereas the flea chamber is kept at room temperature.
After 2 days mortality in % is determined. 100% means all the fleas have been killed; 0% means none of the fleas have been killed.

Test [9] deals with Musca domestica strain WHO-N. Briefly: Musca domestica test (MUSCDO surface treatment & contact assay). Particulars: surface concentration 20 mg/m^2, 30 minutes exposure, 24 hours after contact, read-out: efficacy (mortality). How it is done:
Musca domestica Test (MUSCDO Surface Treatment & Contact Assay)
as §7
In order to produce a sufficient, active ingredient containing solution it is necessary to solve the test compound in the solvent-mix (acetone at 2 mg/ml/RME 2000 ppm). This solution is pipetted onto a glazed tile and after evaporation of the acetone, adult flies of the species Musca domestica strain WHO-N are placed onto the dried surface. The exposure time is 30 minutes. Mortality in percent (%) is determined 24 hours after contact of the insects to the treated surface. 100% mortality means that all tested insects are dead, whereas 0% means that no insect died.

The test system of test [10] is green peach aphid (Myzus persicae). Briefly: Myzus persicae spray test. The settings on record: foliar, 120 h, after 5 days, Chinese cabbage leaf disks. How it is done: Myzus persicae—spray test
as §1, §2, §3
Chinese cabbage (Brassica pekinensis) leaf disks infected with all instars of the green peach aphid (Myzus persicae), are sprayed with a preparation of the active ingredient of the desired concentration.
as §5

Test [11] has as its system adult cat fleas (Ctenocephalides felis). Briefly: Ctenocephalides felis in-vitro contact test, adult cat flea. The settings on record: 5 μg/cm^2 (=500 g/ha), after 48 hours, read-out: efficacy (fleas dead or moribund). As to the method:
Ctenocephalides felis—In-Vitro Contact Tests Adult Cat Flea 9 mg compound is solved in 1 mL acetone and diluted with acetone to the desired concentration. 250 μL of the test solution is filled in 25 mL glass test tubes and homogeneously distributed on the inner walls by rotation and tilting on a shaking device (2 h at 30 rpm). With a compound concentration of 900 ppm, an inner surface of 44.7 cm^2 and a homogeneous distribution, a dose of 5 μg/cm^2 is achieved.
After the solvent has evaporated, each test tube is filled with 5-10 adult cat fleas (Ctenocephalidesfelis), closed with a perforated lid and incubated in a lying position at room temperature and relative humidity.
After 48 hours efficacy is determined. The fleas are patted on the ground of the tubes and are incubated on a heating plate at 45-50° C. for at most 5 minutes. Immotile or uncoordinated moving fleas, which are not able to escape the heat by climbing upwards, are marked as dead or moribund.
An efficacy of 100% means all fleas are dead or moribund; 0% means no fleas are dead or moribund.

As usually defined, the mortality is the share of the test organisms that died. Take `CC(NC(=O)c1cc(Cl)cc(C(F)(F)F)c1)c1nc(Cl)nn1-c1ncccn1` (stereo not shown) [Example I-004]: the mortality at 100 g/ha in test [1] came out at 100%. The pest or weed control at 5 µg/cm2, 500 g/ha in test [2] was found to be 100%. The pest or weed control at 5 µg/cm2 in [3] amounted to 100%. Besides, the pest or weed control at 32 µg/disc, 100 g/ha in test [4] is 100%. This compound also displayed a mortality at 4 ppm in test [5] of 100%. Further, in [6], the pest or weed control at 0.004 mg worked out at 100% and the pest or weed control at 0.02 mg turned out to be 100%. The mortality at 4 mg/m2 in test [7] (surface concentration 4 mg/m^2, 30 minutes exposure) fell in the range of 80 to 100%. The mortality at 20 mg/m2 in test [7] (surface concentration 20 mg/m^2, 30 minutes exposure) is 80 to 100%. The mortality at 100 ppm in [8] worked out at 90%.

On to `CC(NC(=O)c1cc(Cl)cc(C(F)(F)F)c1)c1nc(Cl)nn1-c1ccc(Cl)cn1` (racemic) [Example I-017, 3-chloro-N-[1-[5-chloro-2-(5-chloro-2-pyridyl)-1,2,4-triazol-3-yl]ethyl]-5-(trifluoromethyl)benzamide], for which the mortality at 100 g/ha in test [1] was determined as 83%. In addition, in [3], the pest or weed control at 5 µg/cm2 was found to be 100%. The pest or weed control at 32 µg/disc, 100 g/ha in test [4] was determined as 100%. Besides, in test [6], the pest or weed control at 0.004 mg was 100% and the pest or weed control at 0.02 mg worked out at 100%.

As for `CC(NC(=O)c1cc(Cl)cc(Cl)c1)c1nc(Cl)nn1-c1ncccn1` (stereo not shown) [Example I-005], in [1], the mortality at 100 g/ha amounted to 100%. Further, the pest or weed control at 5 µg/cm2, 500 g/ha in [2] was 100%. For the same compound, in [4], the pest or weed control at 32 µg/disc, 100 g/ha came to 100%. Further, in test [6], the pest or weed control at 0.004 mg was 100% and the pest or weed control at 0.02 mg amounted to 100%. Further, the mortality at 100 ppm in test [8] turned out to be 100%.

`CC(NC(=O)c1cncc(C(F)(F)F)c1)c1nc(Br)nn1-c1ncccn1` (stereo not shown) [Example I-015]: the pest or weed control at 5 µg/cm2 in [3] is 100%. For the same compound, the pest or weed control at 32 µg/disc, 100 g/ha in test [4] turned out to be 80%. In addition, in [6], the pest or weed control at 0.004 mg came out at 100%. The mortality at 100 ppm in [8] is 100%.

With `CC(NC(=O)c1cc(Cl)cc(C(F)(F)F)c1)c1nc(I)nn1-c1ccc(Cl)cn1` (racemic) [Example I-019, 3-chloro-N-[1-[2-(5-chloro-2-pyridyl)-5-iodo-1,2,4-triazol-3-yl]ethyl]-5-(trifluoromethyl)benzamide], the mortality at 100 g/ha in [1] was determined as 100%. Further, the pest or weed control at 5 µg/cm2 in test [3] was determined as 90%. Besides, the pest or weed control at 32 µg/disc, 100 g/ha in test [4] is 100%. Moreover, the mortality at 20 mg/m2 in test [9] is 80 to 100%. In addition, in test [6], the pest or weed control at 0.004 mg was determined as 100% and the pest or weed control at 0.02 mg came to 100%.

`CC(NC(=O)c1cc(Br)cc(Br)c1)c1nc(I)nn1-c1ncccn1` (stereo not shown) [Example I-023] displayed a mortality at 100 ppm in [8] of 100%.

In turn, `CC(NC(=O)c1cc(Br)cc(C(F)(F)F)c1)c1nc(I)nn1-c1ncccn1` (stereo not shown) [Example I-022] gave a mortality at 100 g/ha in [1] of 100%. In addition, the pest or weed control at 5 µg/cm2, 500 g/ha in test [2] worked out at 80%. Also, in [3], the pest or weed control at 5 µg/cm2 is 100%. Moreover, the pest or weed control at 32 µg/disc, 100 g/ha in test [4] stood at 100%. For the same compound, in test [5], the mortality at 4 ppm came out at 100%. Moreover, the mortality at 100 ppm in test [8] turned out to be 90%.

The compound `CC(NC(=O)c1cc(Cl)nc(Cl)c1)c1nc(Cl)nn1-c1ncccn1` (stereo not shown) [Example I-006] had a mortality at 100 g/ha in [10] of 90%. For the same compound, the pest or weed control at 5 µg/cm2, 500 g/ha in test [11] is 100%; in test [2], 80%. Besides, the pest or weed control at 5 µg/cm2 in test [3] was 100%. The pest or weed control at 32 µg/disc, 100 g/ha in test [4] turned out to be 100%. This compound had a mortality at 4 ppm in test [5] of 90%. In addition, in test [6], the pest or weed control at 0.004 mg turned out to be 80%. Besides, in [8], the mortality at 100 ppm turned out to be 100%.
